# Data reported in patent US20250179045A1, “LPAR1 ANTAGONISTS AND USES THEREOF” (Contineum Therapeutics, Inc., priority 2021, published 2025).
# pIC50: −log10 of the molar value.
# Target: human LPA1 (Homo sapiens, UniProt Q92633)
# Test: In vitro functional assay of lysophosphatidic acid receptor 1 activity (calcium flux)
# Assay type: cell-based
# Conditions: B103 cells stably expressing human LPA1; Fluo-4 NW calcium flux after lysophosphatidic acid (18:1) at EC80; compounds 100 pM to 10 μM; read-out: LPA1 IC50
# How it was run: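 B103 cells stably expressing human LPA1 plated onto compound for 24 h at 37 °C, loaded with Fluo-4 NW dye, re-exposed to compound (30 min 37 °C plus 30 min room temp).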
# human LPA1, sequence (Q92633 whole entry): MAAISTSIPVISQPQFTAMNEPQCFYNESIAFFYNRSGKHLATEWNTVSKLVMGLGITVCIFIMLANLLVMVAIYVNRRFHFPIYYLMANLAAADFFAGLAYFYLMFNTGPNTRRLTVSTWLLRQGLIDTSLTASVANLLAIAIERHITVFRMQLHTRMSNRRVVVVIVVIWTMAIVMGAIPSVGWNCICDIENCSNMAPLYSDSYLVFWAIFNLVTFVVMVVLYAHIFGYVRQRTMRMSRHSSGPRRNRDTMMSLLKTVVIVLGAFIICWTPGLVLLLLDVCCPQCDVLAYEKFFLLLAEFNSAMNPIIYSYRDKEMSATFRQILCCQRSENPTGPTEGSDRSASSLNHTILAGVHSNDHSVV
row,pIC50,SMILES
1,6.00 to 7.00,"COc1cc(OC(F)F)c(NC(=O)C2(c3ccccc3C(C)C)COC2)cn1 [Example 25, N-(4-(difluoromethoxy)-6-methoxypyridin-3-yl)-3-(2-isopropylphenyl)oxetane-3-carboxamide]"
2,7.00 to 8.00,"Cc1ccc(NC(=O)C2(c3ccccc3C(C)C)CNC(=O)C2)c(OC(F)F)c1 (centres unmarked) [Example 109, N-(2-(difluoromethoxy)-4-methylphenyl)-3-(2-isopropylphenyl)-5-oxopyrrolidine-3-carboxamide]"
3,7.00 to 8.00,"Cc1ccc(NC(=O)C2(c3ccccc3C(C)C)CC(CO)C2)c(OC(F)F)n1 (centres unmarked) [Example 59, N-(2-(difluoromethoxy)-6-methylpyridin-3-yl)-3-(hydroxymethyl)-1-(2-isopropylphenyl)cyclobutane-1-carboxamide]"
4,7.00 to 8.00,"COc1cc(Cl)ncc1NC(=O)C1(c2ccccc2C(C)C)COC1 [Example 19, N-(6-chloro-4-methoxypyridin-3-yl)-3-(2-isopropylphenyl)oxetane-3-carboxamide]"
5,7.00 to 8.00,"CC(C)c1ccccc1C1(C(=O)Nc2ncc(Cl)cc2OC(F)F)CC(CC(=O)O)C1 (centres unmarked) [Example 47, 2-(3-((5-chloro-3-(difluoromethoxy)pyridin-2-yl)carbamoyl)-3-(2-isopropylphenyl)cyclobutyl)acetic acid]"
6,6.00 to 7.00,"Cc1ccc(NC(=O)C2(c3ccccc3C(C)C)CC(C)(O)C2)c(OC(F)F)n1 (single isomer, unassigned) [Example 51-isomer A, N-(2-(difluoromethoxy)-6-methylpyridin-3-yl)-3-hydroxy-1-(2-isopropylphenyl)-3-methylcyclobutane-1-carboxamide]"
7,6.00 to 7.00,"CCOCN1CC(C(=O)Nc2ncc(Cl)cc2OC(F)F)(c2ccccc2C(C)C)CC1=O (centres unmarked) [Example 11, N-(5-chloro-3-(difluoromethoxy)pyridin-2-yl)-1-(ethoxymethyl)-3-(2-isopropylphenyl)-5-oxopyrrolidine-3-carboxamide]"
8,7.00 to 8.00,"CCC1(O)CC(C(=O)Nc2ccc(C)nc2OC(F)F)(c2ccccc2C(C)C)C1 (centres unmarked) [Example 52, N-(2-(difluoromethoxy)-6-methylpyridin-3-yl)-3-ethyl-3-hydroxy-1-(2-isopropylphenyl)cyclobutane-1-carboxamide]"
9,7.00 to 8.00,"CC(=O)N(C)C1CC(C(=O)Nc2ccc(C)nc2OC(F)F)(c2ccccc2C(C)C)C1 (mixture of isomers) [Example 43, N-(2-(difluoromethoxy)-6-methylpyridin-3-yl)-1-(2-isopropylphenyl)-3-(N-methylacetamido)cyclobutane-1-carboxamide]"
10,> 8.00,"COc1ccc(NC(=O)C2(c3ccccc3C(C)C)CC(Cc3nnn[nH]3)C2)c(OC(F)F)n1 (centres unmarked) [Example 113, 3-((1H-tetrazol-5-yl)methyl)-N-(2-(difluoromethoxy)-6-methoxypyridin-3-yl)-1-(2-isopropylphenyl)cyclobutane-1-carboxamide]"
11,> 8.00,"C#CC1(O)CCC(C(=O)Nc2ccc(OC)nc2OC(F)F)(c2ccccc2C(C)C)CC1 (centres unmarked) [Example 82, N-(2-(difluoromethoxy)-6-methoxypyridin-3-yl)-4-ethynyl-4-hydroxy-1-(2-isopropylphenyl)cyclohexane-1-carboxamide]"
12,< 6.00,"COc1cc(C)ccc1NC(=O)C1(c2ccccc2C(C)C)CNC(=O)C1 (single isomer, unassigned) [Example 102-isomer B, 3-(2-isopropylphenyl)-N-(2-methoxy-4-methylphenyl)-5-oxopyrrolidine-3-carboxamide]"
13,7.00 to 8.00,"Cc1ccc(NC(=O)C2(c3ccccc3C(C)C)COC2)c(OC(F)F)n1 [Example 17, N-(2-(difluoromethoxy)-6-methylpyridin-3-yl)-3-(2-isopropylphenyl)oxetane-3-carboxamide]"
14,6.00 to 7.00,"COc1ccc(NC(=O)C2(c3ccccc3C(C)C)CCC(C(N)=O)CC2)c(OC(F)F)n1 (mixture of isomers) [Example 96, N^1-(2-(difluoromethoxy)-6-methoxypyridin-3-yl)-1-(2-isopropylphenyl)cyclohexane-1,4-dicarboxamide]"
15,6.00 to 7.00,"Cc1ccc(NC(=O)C2(c3ccccc3C(C)C)CC(C)(O)C2)c(OC(F)F)n1 (single isomer, unassigned) [Example 51-isomer B, N-(2-(difluoromethoxy)-6-methylpyridin-3-yl)-3-hydroxy-1-(2-isopropylphenyl)-3-methylcyclobutane-1-carboxamide]"
16,< 6.00,"COc1cc(OC(F)F)c(NC(=O)C2(c3ccccc3C(C)C)CC(=O)N(C)C2)cn1 (centres unmarked) [Example 5, N-(4-(difluoromethoxy)-6-methoxypyridin-3-yl)-3-(2-isopropylphenyl)-1-methyl-5-oxopyrrolidine-3-carboxamide]"
17,< 6.00,"CC(C)c1ccccc1C1(C(=O)Nc2ccc(OC(F)F)nc2Cl)CNC(=O)C1 (centres unmarked) [Example 107, N-(2-chloro-6-(difluoromethoxy)pyridin-3-yl)-3-(2-isopropylphenyl)-5-oxopyrrolidine-3-carboxamide]"
18,7.00 to 8.00,"Cc1ccc(NC(=O)C2(c3ccccc3C(C)C)CNC(=O)C2)c(OC(F)F)n1 (centres unmarked) [Example 9, N-(2-(difluoromethoxy)-6-methylpyridin-3-yl)-3-(2-isopropylphenyl)-5-oxopyrrolidine-3-carboxamide]"
19,< 6.00,"COc1cc(Cl)cnc1NC(=O)C1(c2ccccc2C(C)C)COC1 [Example 20, N-(5-chloro-3-methoxypyridin-2-yl)-3-(2-isopropylphenyl)oxetane-3-carboxamide]"
20,6.00 to 7.00,"COc1cnc(NC(=O)C2(c3ccccc3C(C)C)COC2)c(OC(F)F)c1 [Example 35, N-(3-(difluoromethoxy)-5-methoxypyridin-2-yl)-3-(2-isopropylphenyl)oxetane-3-carboxamide]"
21,> 8.00,"COc1ccc(NC(=O)[C@]2(c3ccccc3C(C)C)C[C@@H](Cc3nnn[nH]3)C2)c(OC(F)F)n1 [Example 120, trans-3-((1H-tetrazol-5-yl)methyl)-N-(2-(difluoromethoxy)-6-methoxypyridin-3-yl)-1-(2-isopropylphenyl)cyclobutane-1-carboxamide]"
22,7.00 to 8.00,"COc1ccc(NC(=O)C2(c3ccccc3C(C)C)COC2)c(OC(C)C)n1 [Example 30, N-(2-isopropoxy-6-methoxypyridin-3-yl)-3-(2-isopropylphenyl)oxetane-3-carboxamide]"
23,7.00 to 8.00,"CC(C)c1ccccc1C1(C(=O)Nc2ccc(Br)cc2OC(F)F)CC(=O)N(C)C1 (centres unmarked) [Example 87, N-(4-bromo-2-(difluoromethoxy)phenyl)-3-(2-isopropylphenyl)-1-methyl-5-oxopyrrolidine-3-carboxamide]"
24,7.00 to 8.00,"COc1ccc(NC(=O)C2(c3ccccc3C(C)C)CCC(N=[N+]=[N-])CC2)c(OC(F)F)n1 (centres unmarked) [Example 84, 4-azido-N-(2-(difluoromethoxy)-6-methoxypyridin-3-yl)-1-(2-isopropylphenyl)cyclohexane-1I-carboxamide]"
25,6.00 to 7.00,"CC(C)c1ccccc1C1(C(=O)Nc2ccc(F)cc2OC(F)F)CC(=O)N(C)C1 (centres unmarked) [Example 88, N-(2-(difluoromethoxy)-4-fluorophenyl)-3-(2-isopropylphenyl)-1-methyl-5-oxopyrrolidine-3-carboxamide]"
26,> 8.00,"CC(C)c1ccccc1C1(C(=O)Nc2ccc(Br)cc2OC(F)F)COC1 [Example 16, N-(4-bromo-2-(difluoromethoxy)phenyl)-3-(2-isopropylphenyl)oxetane-3-carboxamide]"
